# Like-named read-outs stand apart in the source and are kept apart here.
# Assays:
# [1] = target: T1, human estrogen receptor (Homo sapiens, UniProt P03372)
# T1 sequence (P03372 1-595): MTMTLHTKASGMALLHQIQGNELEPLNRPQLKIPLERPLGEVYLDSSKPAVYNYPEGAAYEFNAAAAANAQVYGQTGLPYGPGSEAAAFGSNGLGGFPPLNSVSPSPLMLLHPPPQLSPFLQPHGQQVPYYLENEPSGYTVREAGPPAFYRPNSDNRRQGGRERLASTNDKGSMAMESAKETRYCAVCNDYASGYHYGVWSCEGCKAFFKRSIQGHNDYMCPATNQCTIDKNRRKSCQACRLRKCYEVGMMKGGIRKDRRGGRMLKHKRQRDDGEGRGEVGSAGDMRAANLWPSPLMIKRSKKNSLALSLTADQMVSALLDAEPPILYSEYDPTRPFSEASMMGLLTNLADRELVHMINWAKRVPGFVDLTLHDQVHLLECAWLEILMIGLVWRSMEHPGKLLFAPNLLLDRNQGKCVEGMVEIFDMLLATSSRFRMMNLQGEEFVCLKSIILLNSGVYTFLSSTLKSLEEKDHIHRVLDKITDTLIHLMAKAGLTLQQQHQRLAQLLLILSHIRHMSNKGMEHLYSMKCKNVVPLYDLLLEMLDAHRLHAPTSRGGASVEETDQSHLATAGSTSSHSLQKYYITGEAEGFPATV
# Excerpt: (§1) The MCF-7 assay uses MCF-7, clone WS8, cells to measure whether and to what extent a substance induces cell proliferation via estrogen receptor (ER)-mediated pathways.
# [2] = target: T1, human estrogen receptor; assay: in vitro estrogenic activity assay correlated to the MCF-7 cell proliferation assay; conditions: suitable in vitro assay whose results are directly correlated to the MCF-7 assay
# Excerpt: as §1
SMILES,estrogenic activity [1],estrogenic activity [2]
"Cc1cc(Cc2cc(C)cc(C(C)(C)C)c2O)c(O)c(C(C)(C)C)c1 [2,2′-methylenebis(4-methyl-6-t-butylphenol)]",do not exhibit appreciable estrogenic activity,
"CC(C)(C)c1cc(O)c(C(C)(C)C)cc1O [2,5-di-t-butylhydroquinone]",do not exhibit appreciable estrogenic activity,
"CC(C)(C)c1cc(Cc2cc(C(C)(C)C)c(O)c(C(C)(C)C)c2)cc(C(C)(C)C)c1O [4,4′-methylenebis(2,6-di-t-butylphenol)]",do not exhibit appreciable estrogenic activity,
"Cc1cc(Cc2cc(C)c(O)c(C)c2)cc(C)c1O [4,4′-methylenebis(2,6-dimethylphenol)]",,do not exhibit appreciable estrogenic activity
"CCCC(c1cc(C(C)(C)C)c(O)cc1C)c1cc(C(C)(C)C)c(O)cc1C [4,4′butylidenebis(2-t-butyl-5-methylphenol)]",,do not exhibit appreciable estrogenic activity

# Reference: patent US11667809B2, “Adhesion promoters and compositions for containers and other articles” (SWIMC LLC, priority 2017, dated 2023)
